Results from US10143650B2, “Dispersion intended for encapsulating an active product and associated use” (CAPSUM, priority 2012, dated 2018).

What was measured:
[1] = partition coefficient of the active product between membrane phase and internal phase (octanol/water) and ratio R2 over membrane viscosity; format: physicochemical; settings: concentration in octanol over concentration in water
Experimental: The ratio of the partition coefficient Cp of the active product 20 between the membrane 18 and the internal drop 16 is obtained by determining the partition coefficient of this active product 20 between a homologous phase to the intermediate phase forming the membrane 18 and a homologous phase to the internal phase forming the internal drop 16. The ratio Cp is calculated with the following equation: Cp=K=[active in the membrane phase]/[active in the internal phase].
In particular, when the internal drop 16 is aqueous, and when the membrane 18 is oily, the ratio Cp may be estimated by using log P=log K with: Cp=K=[active in octanol]/[active in water].
Further, the value of log P (=log (K)) may be simply evaluated by means of easily accessible molecular modeling software packages on the Internet such as for example on www.molispiration.com, www.vcclab.org/lab/alogps/start.html.
Experimental determination is possible with the following method: an accurate amount of the active is weighed and solubilized in one of the two water or octanol phases. Two equivalent volumes of both phases are then put into contact with stirring. The concentrations of the active product in each of both phases are then measured after thermodynamic equilibrium of the system. This concentration measurement may for example be carried out by directly measuring the absorbance, if the molecule absorbs light, or by liquid chromatography. This measurement is for example carried out at 22° C.
The coefficient K is then determined experimentally by the ratio of the concentration of the active in octanol over that in water.

[2] = leakage of encapsulated active product into the continuous phase (optical absorbance versus time); format: physicochemical
Source text: FIG. 4 is a graph illustrating the absorbance in the continuous phase in a dispersion according to the invention, wherein an active absorbent product was encapsulated in the dispersed phase;
FIG. 5 is a view similar to FIG. 4 for a dispersion according to the invention containing another absorbent active product; and
FIGS. 4 and 5 respectively illustrate the ratio of optical absorbance in the continuous phase 14 versus time for respectively the dispersion of the first example containing dextran, and for the dispersion of the second example containing bovine serum albumin.

[3] = absorbance in continuous phase, after more than one week at 50° C., R1 0.38

Compound	partition coefficient (K, Cp) of the active product [1]	leakage of active product from the dispersed bodies [2, 3]	leakage of active product from the dispersed bodies ([2]; R2 equal to 3.05, time and temperature not stated)
dextran	less than 10^−2	no leakage	
CCN(CC)c1ccc2c(-c3ccccc3C(=O)O)c3ccc(=[N+](CC)CC)cc-3oc2c1.[Cl-] [Rhodamine B]	70.8		leakage is observed
bovine serum albumin	less than 10^−3	no leakage	
